Molecules are shown by their SMILES.

The target in this assay is Influenza PB2 (Influenza A virus, UniProt P03428). Description: biochemical. Format: binding. To be noted: read-out: Influenza PB2 affinity, IC50.
Influenza PB2, sequence (P03428 whole entry, looked up): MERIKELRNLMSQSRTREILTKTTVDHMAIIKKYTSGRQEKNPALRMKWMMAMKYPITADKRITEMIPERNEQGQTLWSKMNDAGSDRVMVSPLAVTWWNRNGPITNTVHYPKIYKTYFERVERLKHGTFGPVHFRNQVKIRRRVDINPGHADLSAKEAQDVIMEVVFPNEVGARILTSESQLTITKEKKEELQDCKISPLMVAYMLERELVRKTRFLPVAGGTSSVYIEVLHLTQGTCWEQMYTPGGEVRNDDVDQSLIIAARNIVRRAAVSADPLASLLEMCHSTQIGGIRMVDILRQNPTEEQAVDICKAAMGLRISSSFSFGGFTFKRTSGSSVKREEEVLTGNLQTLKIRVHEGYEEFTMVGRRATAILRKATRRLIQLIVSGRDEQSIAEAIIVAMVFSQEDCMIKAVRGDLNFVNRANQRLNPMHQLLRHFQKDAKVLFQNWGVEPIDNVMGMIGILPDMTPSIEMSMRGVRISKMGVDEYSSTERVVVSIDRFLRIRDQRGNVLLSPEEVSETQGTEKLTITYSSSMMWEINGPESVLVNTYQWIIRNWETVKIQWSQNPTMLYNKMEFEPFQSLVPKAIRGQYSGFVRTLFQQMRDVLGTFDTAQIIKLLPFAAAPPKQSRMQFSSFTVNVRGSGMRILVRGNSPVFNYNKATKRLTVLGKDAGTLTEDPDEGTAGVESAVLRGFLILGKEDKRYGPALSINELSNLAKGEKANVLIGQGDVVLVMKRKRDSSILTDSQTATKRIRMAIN
As usually defined, the IC50 is the midpoint of a concentration-inhibition curve. Regarding `CCOCCOCCOCCNC(=O)[C@@H]1CCCC[C@@H]1n1ccc2cnc(-c3c[nH]c4ncc(F)cc34)nc21` [Compound B30], the IC50 lay in the range of 10 to 100 µM.

As to `CCOCCOCCOCCNC(=O)N1CCC[C@H](n2ccc3cnc(-c4c[nH]c5ncc(F)cc45)nc32)C1` [Compound B31], the IC50 lay in the range of 10 to 100 µM. On to `CCOCCOCCOCC(=O)N1CCC[C@H](n2ccc3cnc(-c4c[nH]c5ncc(F)cc45)nc32)C1` [Compound B32], for which the IC50 fell in the range of 10 to 100 µM. The figure for `CCCCCOCCOCCNC(=O)N1CCC[C@H](n2ccc3cnc(-c4c[nH]c5ncc(F)cc45)nc32)C1` [Compound B33] is 10 to 100 µM.

Regarding `CCCCCOCCCCCNC(=O)N1CCC[C@H](n2ccc3cnc(-c4c[nH]c5ncc(F)cc45)nc32)C1` [Compound B34], the IC50 was greater than 100 µM.

As to `CCOCCCCCOCCNC(=O)N1CCC[C@H](n2ccc3cnc(-c4c[nH]c5ncc(F)cc45)nc32)C1` [Compound B35], the IC50 lay in the range of 10 to 100 µM. For `CCCCCOCCOCCNC(=O)N[C@H]1CCC[C@@H](n2ccc3cnc(-c4c[nH]c5ncc(F)cc45)nc32)C1` [Compound B36] the value was greater than 100 µM. For `CCOCCOCCCCCNC(=O)N1CCC[C@H](n2ccc3cnc(-c4c[nH]c5ncc(F)cc45)nc32)C1` [Compound B37] the value was greater than 100 µM; for `CCOCCCCCOCCNC(=O)N[C@@H]1CCC[C@H](n2ccc3cnc(-c4c[nH]c5ncc(F)cc45)nc32)C1` [Compound B38], greater than 100 µM. Take `CCCCCOCCOCC(=O)N[C@@H]1CCC[C@H](n2ccc3cnc(-c4c[nH]c5ncc(F)cc45)nc32)C1` [Compound B39]: the IC50 lay within 10 to 100 µM. The figure for `CCOCCOCCCCCNC(=O)N[C@@H]1CCC[C@H](n2ccc3cnc(-c4c[nH]c5ncc(F)cc45)nc32)C1` [Compound B40] is greater than 100 µM; for `CCOCCCCCOCCN(C)C(=O)N[C@@H]1CCC[C@H](n2ccc3cnc(-c4c[nH]c5ncc(F)cc45)nc32)C1` [Compound B41] it is 10 to 100 µM; for `CCCCCOCCOCCN(C)C(=O)N[C@@H]1CCC[C@H](n2ccc3cnc(-c4c[nH]c5ncc(F)cc45)nc32)C1` [Compound B42] it is greater than 100 µM. For `CCCCCOCCCCCN(C)C(=O)N[C@@H]1CCC[C@H](n2ccc3cnc(-c4c[nH]c5ncc(F)cc45)nc32)C1` [Compound B44] the value was greater than 100 µM; for `CCOCCOCCCCCN(C)C(=O)N[C@@H]1CCC[C@H](n2ccc3cnc(-c4c[nH]c5ncc(F)cc45)nc32)C1` [Compound B45], 10 to 100 µM. In the case of `CCOCCOCCOCCNC(=O)[C@H]1CCC[C@@H](n2ccc3cnc(-c4c[nH]c5ncc(F)cc45)nc32)C1` [Compound B46], the IC50 was in the range of 10 to 100 µM. In the case of `CCOCCOCCOCCNC(=O)[C@H]1CCC[C@H](n2ccc3cnc(-c4c[nH]c5ncc(F)cc45)nc32)C1` [Compound B47], the IC50 was greater than 100 µM. The figure for `O=C(O)[C@@H]1CCC[C@H](n2ccc3cnc(-c4c[nH]c5ncc(F)cc45)nc32)C1` [Compound B48] is 1 to 10 µM.

Regarding `CCCCCOCCCCCNC(=O)N[C@H]1CCC[C@@H](n2ccc3cnc(-c4c[nH]c5ncc(F)cc45)nc32)C1` [Compound B49], the IC50 is greater than 100 µM. The figure for `CCCCCOCCCCC(=O)N[C@H]1CCC[C@@H](n2ccc3cnc(-c4c[nH]c5ncc(F)cc45)nc32)C1` [Compound B50] is greater than 100 µM; for `CCOC(=O)C1=C(N2CCc3cnc(-c4c[nH]c5ncc(F)cc45)nc32)CCCC1` [Compound B51] it is greater than 100 µM. For `CCOCCOCCCCC(=O)N[C@H]1CCC[C@@H](n2ccc3cnc(-c4c[nH]c5ncc(F)cc45)nc32)C1` [Compound B52] the value was greater than 100 µM; for `O=C(O)C1=C(N2CCc3cnc(-c4c[nH]c5ncc(F)cc45)nc32)CCCC1` [Compound B53], 1 to 10 µM. The figure for `CC(=O)N1CCCC(Cn2cc(F)c3cnc(-c4c[nH]c5ncc(F)cc45)nc32)C1` (stereo not drawn) [Compound B54] is 1 to 10 µM; for `Fc1cnc2[nH]cc(-c3ncc4c(F)cn(CC5CCNCC5)c4n3)c2c1` [Compound B55] it is greater than 100 µM. Take `CN(C)C(=O)N[C@@H]1CCC[C@H](n2ccc3cnc(-c4c[nH]c5ncc(F)cc45)nc32)C1` [Compound B56]: the IC50 was in the range of 10 to 100 µM. For `CNC(=O)NC1CCCC(n2ccc3cnc(-c4c[nH]c5ncc(F)cc45)nc32)C1` (stereo not drawn) [Compound B57] the value was 10 to 100 µM.

Regarding `CC(=O)N1CCC(Cn2cc(F)c3cnc(-c4c[nH]c5ncc(F)cc45)nc32)CC1` [Compound B58], the IC50 fell in the range of 10 to 100 µM. For `CN(C)C(=O)N[C@H]1CCC[C@H](n2ccc3cnc(-c4c[nH]c5ncc(F)cc45)nc32)C1` [Compound B59] the value was 10 to 100 µM; for `Fc1cnc2[nH]cc(-c3ncc4c(F)cn(CC5CCCNC5)c4n3)c2c1` (stereo not drawn) [Compound B60], 10 to 100 µM; for `CNC(=O)N1CCCC(Cn2cc(F)c3cnc(-c4c[nH]c5ncc(F)cc45)nc32)C1` (stereo not drawn) [Compound B61], 1 to 10 µM. With `CNC(=O)N1CCC(Cn2cc(F)c3cnc(-c4c[nH]c5ncc(F)cc45)nc32)CC1` [Compound B62], the 50% inhibitory concentration (IC50) was greater than 100 µM. As for `CN(C)C(=O)N1CCC(Cn2cc(F)c3cnc(-c4c[nH]c5ncc(F)cc45)nc32)CC1` [Compound B63], the IC50 is 10 to 100 µM.

For `CNC(=O)N[C@@H]1CCC[C@@H](n2ccc3cnc(-c4c[nH]c5ncc(F)cc45)nc32)C1` [Compound B65], the IC50 was 1 to 10 µM. On to `COC(=O)[C@]1(C)CCCC[C@H]1n1cc(Cl)c2cnc(-c3c[nH]c4ncc(F)cc34)nc21` [Compound B66], for which the IC50 was in the range of 10 to 100 µM.

As to `COC(=O)[C@@]1(C)CCCC[C@@H]1n1ccc2cnc(-c3c[nH]c4ncc(F)cc34)nc21` [Compound B67], the IC50 is 10 to 100 µM. Take `CNC(=O)N[C@H]1CC[C@@H](n2ccc3cnc(-c4c[nH]c5ncc(F)cc45)nc32)CC1` [Compound B68]: the IC50 lay in the range of 1 to 10 µM.

Regarding `N[C@H]1CC[C@@H](n2ccc3cnc(-c4c[nH]c5ncc(F)cc45)nc32)CC1` [Compound B69], the IC50 was in the range of 10 to 100 µM. For `CN(C)C(=O)N[C@H]1CC[C@@H](n2ccc3cnc(-c4c[nH]c5ncc(F)cc45)nc32)CC1` [Compound B70] the value was 10 to 100 µM; for `C[C@]1(C(=O)O)CCCC[C@@H]1n1ccc2cnc(-c3c[nH]c4ncc(F)cc34)nc21` [Compound B71], less than 1 µM; for `C[C@@]1(C(=O)O)CCCC[C@H]1n1cc(Cl)c2cnc(-c3c[nH]c4ncc(F)cc34)nc21` [Compound B72], less than 1 µM.

As to `COC(=O)[C@]1(C)CCCC[C@H]1n1cc(C(F)(F)F)c2cnc(-c3c[nH]c4ncc(F)cc34)nc21` [Compound B73], the IC50 lay within 10 to 100 µM. The figure for `C[C@@]1(C(=O)O)CCCC[C@H]1n1cc(C(F)(F)F)c2cnc(-c3c[nH]c4ncc(F)cc34)nc21` [Compound B74] is less than 1 µM; for `CN(C)C(=O)N1CCCC(Cn2cc(F)c3cnc(-c4c[nH]c5ncc(F)cc45)nc32)C1` (stereo not drawn) [Compound B75] it is 10 to 100 µM; for `Fc1cnc2[nH]cc(-c3ncc4c(F)cn(CC5CCCCN5)c4n3)c2c1` (stereo not drawn) [Compound B76] it is 10 to 100 µM. The figure for `CNC(=O)n1cc(-c2ncc3c(F)cn(CC4CCCCN4)c3n2)c2cc(F)cnc21` (stereo not drawn) [Compound B77] is 10 to 100 µM; for `CC(C)(C)OC(=O)N1CCC(Cn2cc(F)c3cnc(-c4c[nH]c5ncc(F)cc45)nc32)CC1` [Compound B78] it is greater than 100 µM. For `CNC(=O)N[C@H]1CC[C@H](n2ccc3cnc(-c4c[nH]c5ncc(F)cc45)nc32)CC1` [Compound B79] the value was greater than 100 µM. `CN(C)C(=O)N[C@H]1CC[C@H](n2ccc3cnc(-c4c[nH]c5ncc(F)cc45)nc32)CC1` [Compound B80]: the IC50 was greater than 100 µM. `COC(=O)[C@@]1(C)CCCC[C@H]1n1cc(Cl)c2cnc(-c3c[nH]c4ncc(F)cc34)nc21` [Compound B81]: the 50% inhibitory concentration (IC50) was greater than 100 µM.

On to `CNC(=O)[C@]1(C)CCCC[C@H]1n1cc(Cl)c2cnc(-c3c[nH]c4ncc(F)cc34)nc21` [Compound B82], for which the 50% inhibitory concentration (IC50) was 10 to 100 µM.

Consider `C[C@@]1(C(=O)O)CCCC[C@@H]1n1cc(Cl)c2cnc(-c3c[nH]c4ncc(F)cc34)nc21` [Compound B83], for which the IC50 fell in the range of 1 to 10 µM. Turning to `CC(C)(C)C(C(=O)O)n1ccc2cnc(-c3c[nH]c4ncc(F)cc34)nc21` (stereo not drawn) [Compound B84], the IC50 fell in the range of 1 to 10 µM. The figure for `CNC(=O)N1CCCCC1Cn1cc(F)c2cnc(-c3c[nH]c4ncc(F)cc34)nc21` (stereo not drawn) [Compound B85] is 1 to 10 µM. Take `CN(C)C(=O)N1CCCCC1Cn1cc(F)c2cnc(-c3c[nH]c4ncc(F)cc34)nc21` (stereo not drawn) [Compound B86]: the IC50 lay in the range of 1 to 10 µM. The figure for `O=C(O)[C@@H]1CCCC[C@H]1n1cc(F)c2cnc(-c3c[nH]c4ncc(Cl)cc34)nc21` [Compound B87] is less than 1 µM; for `CCOC(=O)[C@]1(C)CCCC[C@H]1n1cc(F)c2cnc(-c3c[nH]c4ncc(Cl)cc34)nc21` [Compound B88] it is greater than 100 µM. The figure for `C[C@@]1(C(=O)O)CCCC[C@H]1n1cc(F)c2cnc(-c3c[nH]c4ncc(F)cc34)nc21` [Compound B89] is less than 1 µM; for `CCOC(=O)[C@]1(C)CCCC[C@H]1n1cc(F)c2cnc(-c3c[nH]c4ncc(F)cc34)nc21` [Compound B90] it is greater than 100 µM. For `C[C@@]1(C(=O)O)CCCC[C@H]1n1cc(F)c2cnc(-c3c[nH]c4ncc(Cl)cc34)nc21` [Compound B91] the value was less than 1 µM. Regarding `CNC(=O)[C@]1(C)CCCC[C@H]1n1cc(F)c2cnc(-c3c[nH]c4ncc(Cl)cc34)nc21` [Compound B92], the IC50 lay within 10 to 100 µM. For `CNC(=O)[C@@H]1CCCCC1n1cc(F)c2cnc(-c3c[nH]c4ncc(Cl)cc34)nc21` (stereo partly drawn) [Compound B94] the value was 10 to 100 µM; for `O=C(N[C@H]1CCC[C@@H](n2cc(F)c3cnc(-c4c[nH]c5ncc(Cl)cc45)nc32)C1)c1ccccn1` [Compound B96], greater than 100 µM; for `CCC(C)(C(=O)NCC(F)(F)F)n1ccc2cnc(-c3c[nH]c4ncccc34)nc21` (stereo not drawn) [Compound B97], greater than 100 µM. The figure for `CCOC(=O)C1=CCCCC1n1cc(F)c2cnc(-c3c[nH]c4ncc(Cl)cc34)nc21` (stereo not drawn) [Compound B98] is greater than 100 µM.

Regarding `O=C(O)C1=CCCCC1n1cc(F)c2cnc(-c3c[nH]c4ncc(Cl)cc34)nc21` (stereo not drawn) [Compound B99], the IC50 is less than 1 µM.

Values taken from US11014941B2, “Pyrrolopyrimidine derivatives useful as inhibitors of influenza virus replication” (priority 2017, dated 2021).
